Results as given in paper PMC9611657, “Bruton’s Tyrosine Kinase Inhibitor Zanubrutinib Effectively Modulates Cancer Resistance by Inhibiting Anthracycline Metabolism and Efflux” (Pharmaceutics, 2022).

Experiments:
[1] = target: T1, aldo-keto reductase 1C3 (AKR1C3) (Homo sapiens, UniProt P42330); assay: inhibition of daunorubicin reduction by recombinant enzyme, UHPLC of DAUN-OL, Michaelis-Menten/Lineweaver-Burk; assay type: biochemical
T1 construct: human recombinant AKR1C3 from E. coli BL21(DE3), HisTrap purified
T1 sequence (P42330 1-323): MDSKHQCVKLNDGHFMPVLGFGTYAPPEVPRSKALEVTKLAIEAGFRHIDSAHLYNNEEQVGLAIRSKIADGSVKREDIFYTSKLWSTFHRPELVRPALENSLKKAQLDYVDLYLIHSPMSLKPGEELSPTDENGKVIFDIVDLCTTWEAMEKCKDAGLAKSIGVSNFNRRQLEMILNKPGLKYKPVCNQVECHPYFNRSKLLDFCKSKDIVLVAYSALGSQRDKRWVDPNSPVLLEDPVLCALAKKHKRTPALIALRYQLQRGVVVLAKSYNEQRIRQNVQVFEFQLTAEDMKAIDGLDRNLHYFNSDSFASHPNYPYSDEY

[2] = target: T1, aldo-keto reductase 1C3 (AKR1C3); assay: reduction to daunorubicinol by recombinant enzyme (DAUN […]), UHPLC, Michaelis-Menten kinetics; assay type: biochemical

| Structure (SMILES) | Ki [1] | reduction to daunorubicinol by recombinant enzyme (DAUN 200-2000 μM), UHPLC, Mic [2] |
| --- | --- | --- |
| C=CC(=O)N1CCC([C@@H]2CCNc3c(C(N)=O)c(-c4ccc(Oc5ccccc5)cc4)nn32)CC1 [ZAN, Zanubrutinib] | 2900 nM |  |
| COc1cccc2c1C(=O)c1c(O)c3c(c(O)c1C2=O)C[C@@](O)(C(C)=O)C[C@@H]3O[C@H]1C[C@H](N)[C@H](O)[C@H](C)O1 [DAUN, Daunorubicin] |  | AKR1C3 was incubated with the substrate DAUN, with or without ZAN. |
